# What was measured:
# [1] = Superoxide assay (dihydroethidium fluorometric); format: biochemical; conditions: test compound 10 μM; for effect of Cu(II) on superoxide generation: Cu(II)-glycine 1 μM; for superoxide production: ambient oxygen, dark, 60 minutes
# Method: Superoxide Assay—The fluorometric assay for superoxide is based upon the dihydroethidium (DHE, HYDROETHDNE™) method (Molecular Probes, Eugene, Oreg.) and used according to the manufacturer's instructions. DHE (1 mM) was freshly prepared in 100% argon-sparged DMSO. The reaction solutions were carried out in PBS, pH 7.4, under ambient gas conditions, in 96-well format plates and contained a test compound (KYN, 3-HK, 3-HAA, and ANA, each at 10 μM), DHE (100 μM), +/− Cu(II)-glycine (1 μM) and incubated at 37EC for 60 minutes. […] Abolition of the reading by co-incubation with superoxide dismutase (1000 U/ml) was used for establishing superoxide specificity. The fluorescent readings were recorded by a Packard FLUOROCOUNT™ fluorescent plate reader with a 510 nm excitation filter and 590 nm emission filter. Potassium superoxide dissolved in degassed DMSO was used as a positive control.
# [2] = Metal reduction assay, Fe(III) to Fe(II) (BP indicator); format: biochemical; conditions: test compound 10 μM, Fe(III)-citrate 25 μM, PBS pH 7.4, 37° C., dark, one hour
# Method: Metal Reduction Assays—Assays were performed using a 96-well microtiter plate (Costar, Mass.). Test compounds from the kynurenine pathway (10 μM) or, as a positive control, ascorbic acid (ASC, 10 μM) were co-incubated with either Fe(III)-citrate (25 μM) and the Fe(II) indicator bathophenanthroline disulfonic acid (BP, 250 μM), or Cu(II)-glycine (25 μM) and the Cu(I) indicator bathocuproine disulfonic acid (BC) or bicinchoninic acid (BCA, 250 μM). Incubations were conducted in PBS, pH 7.4, at 37° C. in the dark for one hour. Absorbencies were then measured using a plate reader (SPECTRAmax Plus, Molecular Devices, CA) at the appropriate wavelengths: Fe(II)-BP complex at 535 nm (the known molar absorption coefficient, M535,=22140 M^−1 cm^−1), Cu(I)-BC complex at 483 nm, M483=12250 M^−1cm^−1), or Cu(I)-BCA complex at 562 nm, M562=7700 M^−1cm^−1). In control samples, absorbance from the metal ion and indicator in the absence of test compound and the absorbance of test compound in the presence of metal ions, but in the absence of indicator, were determined. The absorbencies from these controls were deducted from those obtained in the presence of the test compound, metal and indicator to yield the net absorbance (ΔA). Fe(II) or Cu(I) concentrations (μM) were calculated according to the formula: C(μM)=ΔA*10^6/Mλ. […]
# [3] = Thiobarbituric acid-reactive substance (TBARS) assay for hydroxyl radical; format: biochemical; conditions: reaction with Cu(II)
# From the text: Although two Fenton chemistry substrates, hydrogen peroxide and reduced redox-active metal, are produced by 3-HK and 3-HAA, evidence of the hydroxyl radical was not detected using the thiobarbituric acid-reactive substance assay (Huang, X. et al., Biochem. 38:7609–7616 (1999)) (data not shown).
# [4] = Metal reduction assay, Cu(II) to Cu(I) (BC/BCA indicator); format: biochemical; conditions: test compound 10 μM, Cu(II)-glycine 25 μM, PBS pH 7.4, 37° C., dark, one hour
# Method: Metal Reduction Assays—Assays were performed using a 96-well microtiter plate (Costar, Mass.). Test compounds from the kynurenine pathway (10 μM) or, as a positive control, ascorbic acid (ASC, 10 μM) were co-incubated with either Fe(III)-citrate (25 μM) and the Fe(II) indicator bathophenanthroline disulfonic acid (BP, 250 μM), or Cu(II)-glycine (25 μM) and the Cu(I) indicator bathocuproine disulfonic acid (BC) or bicinchoninic acid (BCA, 250 μM). Incubations were conducted in PBS, pH 7.4, at 37° C. in the dark for one hour. Absorbencies were then measured using a plate reader (SPECTRAmax Plus, Molecular Devices, CA) at the appropriate wavelengths: Fe(II)-BP complex at 535 nm (the known molar absorption coefficient, M535,=22140 M^−1 cm^−1), Cu(I)-BC complex at 483 nm, M483=12250 M^−1cm^−1), or Cu(I)-BCA complex at 562 nm, M562=7700 M^−1cm^−1). In control samples, absorbance from the metal ion and indicator in the absence of test compound and the absorbance of test compound in the presence of metal ions, but in the absence of indicator, were determined. The absorbencies from these controls were deducted from those obtained in the presence of the test compound, metal and indicator to yield the net absorbance (ΔA). Fe(II) or Cu(I) concentrations (μM) were calculated according to the formula: C(μM)=ΔA*10^6/Mλ.
# The compounds comprising the kynurenine pathway (FIG. 1) were assayed for their ability to reduce […] and Cu(II) (FIG. 2A). […] Values represent the mean±SD for three independent measurements.
# α-crystallin = biological target: T1, α-crystallin (Bos taurus, UniProt P02470+P02510); test: α-Crystallin modification under longwave ultraviolet illumination; format: biochemical; conditions: exposure of α-crystallin in the presence of longwave ultraviolet illumination
# T1 sequence (P02470 1-173): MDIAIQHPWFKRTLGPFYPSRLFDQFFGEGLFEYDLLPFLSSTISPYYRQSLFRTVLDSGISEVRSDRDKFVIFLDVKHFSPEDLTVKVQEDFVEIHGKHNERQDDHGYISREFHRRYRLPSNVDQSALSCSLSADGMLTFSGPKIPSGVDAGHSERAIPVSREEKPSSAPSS
# T1 sequence (P02510 1-175): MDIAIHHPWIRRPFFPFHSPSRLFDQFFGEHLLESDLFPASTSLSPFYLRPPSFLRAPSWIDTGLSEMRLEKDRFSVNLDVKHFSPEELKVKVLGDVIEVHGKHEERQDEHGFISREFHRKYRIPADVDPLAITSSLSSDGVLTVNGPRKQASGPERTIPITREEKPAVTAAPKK
# [5] = Cyclic voltammetry of kynurenine metabolites with Cu(II); format: physicochemical; conditions: metabolite 100 μM, cupric chloride 25 μM, PBS pH 7.4
# Method: Cyclic Voltammetry—Cyclic voltammetry was performed at room temperature (22±2° C.) on ambient solutions using an EG&G PAR potentiostat, Model 273. The potentiostat was operated in Ramp Mode, generating a potential staircase waveform with a 0.25 mV step height. The potential window of +0.15 to −0.4V, in which Cu(I) is electroactive, but the metabolites are not, was scanned in both directions at a rate of 100 mV/sec. The current response was passed through a 5.3 Hz low pass filter. A minimum of three cycles were collected for each scan, ensuring the stability of the electrochemical response. The electrochemical cell consisted of an indium/tin oxide working electrode (Delta Technologies) with an active area of 0.32 cm^2, a platinum wire auxiliary electrode, and a Ag/AgCl (1 M KCl) reference electrode (Microelectrodes Inc.). Both the auxiliary and reference electrodes were positioned in the cell in close proximity to the working electrode. The working electrodes were pretreated with successive 10 minute sonications in Alconox (˜8 g/L), 95% ethanol, Milli-Q purified H2O (2×), and PBS (pH 7.4), followed by an overnight soak in PBS (pH 7.4). The ITO electrodes were subsequently “activated” immediately prior to use by successive cycling in PBS for three cycles in each of the following potential windows: +0.15 ? −0.4 V, +0.4 ? −0.4 V, and +1.0 ? −0.4 V. Cupric chloride (25 μM; Allied Chemical) was used as the Cu(II) source. Background voltammograms were obtained on each new electrode before testing the kynurenine pathway metabolites. PBS solutions of KYN, 3-HK, ANA, and 3-HAA (each at 100 μM) were separately scanned with and without added Cu(II) (25 μM). Each experiment also included a scan of Cu(II) (25 μM) in PBS without added test compound. All solutions were tested within minutes of being prepared. Each test was repeated to ensure the reproducibility of the results.
# The voltammograms in FIGS. 3A–3D compare 3-HK and 3-HAA to their corresponding non-phenolic analogs, kynurenine (KYN) and anthranilic acid (ANA), in aqueous solutions of Cu(II) at pH 7.4. […] At potentials above +0.15 V, the metabolites undergo direct irreversible oxidation, a reaction that is not considered further here. Cyclic voltammetry of Cu(II) in PBS yielded a current response at ≈−100 mV due to reduction of the metal ion (scan “b” in each panel).
# [6] = Hydrogen peroxide assay (DCF fluorometric); format: biochemical; conditions: for hydrogen peroxide generated: ambient gas conditions, CHELEX-treated PBS, FIG. 4C
# Method: Hydrogen Peroxide Assay—The fluorometric assay for hydrogen peroxide is based on the dichlorofluorescein diacetate (DCF) method (Molecular Probes, Eugene, Oreg.). The DCF solution (5 mM) in 100% ethanol was deacetylated in the presence of 0.01 M NaOH for 30 minutes and neutralized. Horseradish peroxidase (200 U/ml) was then added and the DCF concentration adjusted to 200 μM in PBS. The reaction solutions were carried out in PBS, pH 7.4, in a 96-well format plate (total volume=300 μL/well) and contained a test compound (KYN, 3-HK, 3-HAA, ANA, or ASC, each at 10 μM), deacetylated DCF (20 μM), and Cu(II)-glycine (1 μM) as indicated, incubated at 37° C. for 60 minutes. […] Abolition of the reading by co-incubation with catalase (1000 U/ml) was used for establishing H2O2 specificity. The fluorescent readings were recorded by a Packard FLURORCOUNT™ fluorescent plate reader with a 485 nm excitation filter and 530 nm emission filter. Concentrations were determined by comparison to a standard curve using reagent grade hydrogen peroxide in CHELEX™ chelating ion exchanae resin-treated PBS buffer, pH 7.4.
# Reactions were conducted in the absence of added Cu(II), in the presence of added glycine-complexed Cu(II) (1 μM), in the presence of added glycine-complexed Cu(II) (1 μM) and catalase (1000 U/ml), or with added glycine-complexed Cu(II) (1 μM) and the copper chelator triethylenetetramine (TETA, 200 μM).
# [7] = Metal reduction capacity of tanned calf lens α-crystallin, Cu(II); format: biochemical; conditions: α-crystallin treated with 100 μM reductant, then dialysis
# Method: Studies of Tanned Calf Lens Crystalin in Assay of Crystallin Protein for Metal Reduction Capacity—α-Crystallin (10 mg/ml) from calf lens was modified by reaction with 3-HK (100 μM), 3-HAA (100 μM), or ASC (100 μM) in PBS, ph 7.4, for 12 hours at 4° C. in the dark. Control samples were incubated with ascorbic acid (100 μM) or without added reductant. The tanning incubation solutions also contained triethylenetetramine (TETA, 200 μM) to prevent cross-linking of the protein. After incubation, free reductant was removed from the tanned α-crystallin preparations by exhaustive dialysis at 4EC in the dark utilizing PBS, pH 7.4, containing CHELEX™ 100 chelating ion exchange resin (BioRad, Hercules, Calif.). The various modified α-crystallin preparations (100 μg/ml) were co-incubated with either Cu(II)-glycine glycine (25 μM) or Fe(III)-citrate (25 μM) for one hour at 37° C. and assayed for metal reduction capacity using the BC and BP spectrophotometric assay as detailed above. Incubated and dialyzed α-crystallin (100 μg/ml) and untreated α-crystallin (100 μg/ml) preparations were used for procedural control.
# 3-HK: α-crystallin reduced nearly 100% of the available Cu(II) and approximately 20% of the available Fe(III). 3-HAA: α-crystallin reduced approximately 65% of the available Cu(II).
# [8] = Hydrogen peroxide assay (DCF fluorometric); format: biochemical; conditions: reacting with Cu(II), 37° C., dark
# αB-crystallin = biological target: T2, αB-crystallin (Bos taurus, UniProt P02510); test: αB-crystallin cross-linking in total calf lens protein (Western blot); conditions: metabolite 10 μM, no added Cu(II), five days 37° C. dark
# T2 sequence (P02510 1-175): T1 sequence (P02510 1-175)
Compound,effect of Cu(II) on superoxide generation [1],superoxide production [1],reduction of Fe(III) [2],evidence of the hydroxyl radical [3],reduction of Cu(II) [4],capacity of altered α-crystallin to reduce metal and generate hydrogen peroxide (α-crystallin),Cu(II) reduction wave in presence of metabolite [5],hydrogen peroxide generated relative to available Cu(II) [6],hydrogen peroxide generated [6],enhancement of α-crystallin reducing efficiency after treatment [7],time dependence of hydrogen peroxide generation [8],αB-crystallin cross-linking (αB-crystallin)
"Nc1c(O)cccc1C(=O)O [3-HAA, 3-hydroxyanthranilic acid]",strongly promoted,significant superoxide production,approximately 50%,not detected,100%,dramatically enhanced capacity,markedly decreased,approximately 3 fold,approx. 3 μM,–,–,–
"O=C1O[C@H]([C@@H](O)CO)C(O)=C1O [ASC, ascorbic acid, reference compound]",–,–,–,–,–,did not share this property,–,–,–,did not result in the enhancement,continuous over five hours,–
"Nc1ccccc1C(=O)C[C@H](N)C(=O)O [KYN, L-kynurenine]",did not promote,negligible,–,–,–,dramatically enhanced capacity,largely unaffected,–,approx. 0.3 μM,–,–,does not induce
"O=C(O)c1cc(O)c2cccc(O)c2n1 [XA, xanthurenic acid]",–,–,did not reduce,–,approximately 40%,–,–,–,–,–,–,–

# — US7166472B2, “Method for the identification of agents that inhibit or promote cataracts and uses thereof” (The General Hospital Corporation, priority 2000, dated 2007)
